Laboratory results: US20060167006A1, “Method of treatment” (priority 2003, published 2006)

Tests used:
Assay type in all cases: cell-based, human
Mia-PaCa-2 cells = experiment: Growth factor-induced proliferation (MTT), Mia-PaCa-2
Procedure: (§1) Cell culture and MTT assay: Human pancreatic cancer cell lines are routinely grown in DMEM (Colo-357 and Mia-PaCa-2) or RPMI (Aspc-1, BxPc-3, Capan-1, and T3M4) supplemented with 10% FBS, 100 U/ml penicillin, and 100 μg/ml streptomycin (complete medium). To assess cell proliferation, the MTT test is employed. […] After 48 or 72 hours of incubation, 3-(4,5-methylthiazol-2-yl)-2,5-diphenyl-tetrazolium bromide (MTT) is added (50 μg/well) for 4 hours. Formazan products are solubilized with acidic isopropanol, and the optical density is measured at 570 nm. […] All experiments are performed in triplicate.
(§2) EGF-induced proliferation of both Mia-PaCa-2 and T3M4 cell lines in a dose-dependent manner is seen with maximal effects of +72% ±7.5% (Mia-PaCa-2) and +52% ±23% (T3M4). […] FGF-2 markedly stimulates cell growth in Mia-PaCa-2 cell lines with maximal effects of +79% ±6%, and only slightly stimulated T3M4 cell lines, with maximal effects of +7% ±4%. […] Both cell lines are less sensitive to IGF-1 stimulation compared with EGF and FGF-2, with maximal effects of +24% ±2% in Mia-PaCa-2 and +17% ±4% in. T3M4.

T3M4 cells = experiment: Growth factor-induced proliferation (MTT), T3M4
Procedure: as §1, §2

MAPK = experiment: Western blot of MAPK phosphorylation in growth factor-conditioned cells; conditions: Mia-PaCa-2 and T3M4 cells, data not shown
Procedure: Western blot analysis: Cell culture monolayers are washed twice with ice-cold PBS and lysed with buffer containing Tris-HCl (50 mM, pH 7.4), NP-40 (1%), Na-deoxycholate (0.25%), NaCl (150 mM), EDTA (1 mM), PMSF (1 mM), Na3VO4 (1 mM), NaF (1 mM) and one tablet of complete mini-EDTA-free protease inhibitor cocktail (in 10 ml buffer). Protein concentration is determined by the BCA protein assay (Pierce Chemical Co., Rockford, Ill., USA). 30 μg of cell lysates are separated on SDS-polyacrylamide gels and electroblotted onto nitrocellulose membranes. Membranes are then incubated in blocking solution (5% nonfat-milk in 20 mM Tris-HCl, 150 mM NaCl, 0.1% Tween-20) (TBS-T), followed by incubation with the indicated antibodies at 4° C. overnight. The membranes are then washed in TBS-T and incubated with HRPO-conjugated secondary antibodies for 1 hour at room temperature. Antibody detection is performed with an enhanced chemiluminescence reaction. Statistical analysis: Results are expressed as mean±SEM. For statistical analysis, the Student's t-test is used. Significance is defined as p<0.05.

[1] = system: BxPc-3, Colo-357 and Capan-1; experiment: PDGF effect on cell growth, three additional cell lines; conditions: BxPc-3, Colo-357 and Capan-1, growth factor alone
Procedure: as §1, §2

| Substance | Maximal effect of growth factor on cell growth (Mia-PaCa-2 cells; Mia-PaCa-2, growth factor alone (absence of Compound I), 72 hours, MTT) | Maximal effect of growth factor on cell growth (T3M4 cells; T3M4, growth factor alone (absence of Compound I), 72 hours, MTT) | Induction of cell proliferation by growth factor (Mia-PaCa-2 cells; Mia-PaCa-2, growth factor alone) | Induction of cell proliferation by growth factor (T3M4 cells; T3M4, growth factor alone) | Induction of PDGF and MAPK kinase phosphorylation (MAPK) | Effect of growth factor on cell growth [1] |
| --- | --- | --- | --- | --- | --- | --- |
| EGF: epidermal growth factor, EGF from Upstate Biotechnology | +72% ±7.5 | +52% ±23 |  |  |  |  |
| PDGF |  |  | does not induce cell proliferation | does not induce cell proliferation | does not induce PDGF and MAPK kinase phosphorylation | no effect on cell growth |
